Assay: Antiinflammatory activity in mouse J774.1 cells assessed as inhibition of LPS-induced NO production
Format: functional, cell-based

Row | SMILES | IC50
1 | C=Cc1c2c(nc3cc(O)c([C@@H]4C[C@@]5(CC)CCCN6CCc7c(n4c4ccccc74)[C@H]65)cc13)N1CCC[C@](CC)(C2)C1 [LEUCOPHYLLIDINE] | 7.1 µM
2 | CNC(=N)NCCC[C@H](N)C(=O)O [TILARGININE] | 22 µg/mL

Reference: ChEMBL document CHEMBL1268862, “Eucophylline, a Tetracyclic Vinylquinoline Alkaloid from Leuconotis eugenifolius” (J Nat Prod, 2010)
